From patent US20240360119A1, “SMALL MOLECULE UREA DERIVATIVES AS STING ANTAGONISTS” (CURADEV PHARMA PVT. LTD., priority 2021, published 2024)
pIC50: −log10 of the molar value.

System: STING (IRF pathway reporter in THP1-Dual™ cells, THP-1 (HAQ))
Assay: Reporter gene expression assay in THP-1 cells (THP1-Dual, IRF pathway Lucia luciferase, 2′,3′-cGAMP stimulation)
Assay type: cell-based, human
Details: Homo sapiens, 10 min preincubation, 5 μM 2′,3′-cGAMP, 20 hr, IRF pathway luciferase (QUANTI-Luc), IC50 range class
Procedure: THP1-Dual™ cells (Invivogen) were derived from the human THP-1 monocyte cell line by stable integration of two inducible reporter constructs. As a result, THP1-Dual™ cells allow the simultaneous study of the IRF pathway, by assessing the activity of a secreted luciferase (Lucia) and the NF-κB pathway, by monitoring the activity of secreted SEAP. 5×10^4 THP1-Dual™ cells were seeded in 384-well plates in growth medium and preincubated with novel compounds for 10 minutes followed by stimulation with 5 μM 2′,3′-cGAMP. After 20 hr of stimulation the supernatant was removed and the IRF pathway reporter protein was readily measured in the cell culture supernatant using QUANTI-Luc™ (Invivogen), a luciferase detection reagent on a Spectramax i3X luminometer.
In the tables below, IC50 value ranges for exemplary compounds are given. The IC50 ranges are indicated as “A” for values less than or equal to 1 μM, “B” for values greater than 1 μM and less than or equal to 10 μM, and “C” for values greater than 10 μM.

| pIC50 | Structure (SMILES) |
| --- | --- |
| 5.00 to 6.00 | COCCN(C)C(=O)CC(NC(=O)Nc1ccc2cc[nH]c2c1)c1ccc2c(c1)N(Cc1ccccc1)CCS2 (centres unmarked) [Example 33, 3-(3-(1H-indol-6-yl)ureido)-3-(4-benzyl-3,4-dihydro-2H-benzo[b][1,4]thiazin-6-yl)-N-(2-methoxyethyl)-N-methylpropanamide] |
| < 5.00 | O=C(CC(NC(=O)Nc1ccc2cc[nH]c2c1)c1ccc2c(c1)N(Cc1ccccc1)CCS2)Nc1cccnc1 (centres unmarked) [Example 34, 3-(3-(1H-indol-6-yl)ureido)-3-(4-benzyl-3,4-dihydro-2H-benzo[b][1,4]thiazin-6-yl)-N-(pyridin-3-yl)propanamide] |
| 5.00 to 6.00 | O=C(CC(NC(=O)Nc1ccc2cc[nH]c2c1)c1ccc2c(c1)N(Cc1ccccc1)CCS2)NCCO (centres unmarked) [Example 35, 3-(3-(1H-indol-6-yl)ureido)-3-(4-benzyl-3,4-dihydro-2H-benzo[b][1,4]thiazin-6-yl)-N-(2-hydroxyethyl)propanamide] |

The remaining lines, values behind:

| Structure (SMILES) | pIC50 |
| --- | --- |
| C=CCC(NC(=O)Nc1ccc2cc[nH]c2c1)c1ccc2c(c1)N(Cc1c(F)cccc1Cl)CCS2 (centres unmarked) [Example 36, 1-(1-(4-(2-chloro-6-fluorobenzyl)-3,4-dihydro-2H-benzo[b][1,4]thiazin-6-yl)but-3-en-1-yl)-3-(1H-indol-6-yl)urea] | ≥ 6.00 |
| C=CCC(NC(=O)Nc1c[nH]c2ccccc12)c1ccc2c(c1)N(Cc1ccccc1)CCS2 (centres unmarked) [Example 37, 1-(1-(4-benzyl-3,4-dihydro-2H-benzo[b][1,4]thiazin-6-yl)but-3-en-1-yl)-3-(1H-indol-3-yl)urea] | 5.00 to 6.00 |
